Experimental data: patent US6391899B1, “Compounds and compositions for treating tissue ischemia” (North Shore—Long Island Jewish Research Institute, priority 1998, dated 2002)
Read-outs that look alike come from different tables or passages of the source.

Legend:
rat brain cortex = conditions: for cell necrosis and apoptosis at the injection zone (eosin, TUNEL staining): intracortical microinjection, histology 24 hr; for protection against spermine-mediated intracortical damage, systemic administration: i.p. treatment, intracortical spermine 25 μg, infarct volume 48 hr
[1] = system: intracerebral TNF synthesis; experiment: Intracerebral TNF synthesis after central administration; format: in vivo; conditions: centrally administered; data not illustrated
[2] = system: neuronal cell cultures (HTB11); experiment: Apoptosis and cell death detection in neuronal cells (TUNEL, Annexin V, DNA electrophoresis, scatter analysis); format: cell-based, human; conditions: for induction of apoptosis in neuronal cells: HTB11, TUNEL, Annexin V, camptothecin 15 μg/ml for 20 hr
Description: (§1) Additional evidence of apoptosis by flow cytometric detection of DNA strand breaks was obtained using the terminal deoxynucleotidyl taansferase mediated dUTP nick end labeling TUNEL) method (Gavrieli et al., J. Cell. Biol 119:493-501, 1992). Terminal deoxynucleotidyl transferase mediated dUTP nick end labeling (TUNEL) staining was performed on cell cultures treated with 3-aminopropanal, as indicated. Cells were harvested and collected by centrifugation at 1,500 rpm for 5 min. The pellets were fixed with 1×ORTHO Permeafix (Orthodiagnostics) at room temperature for 40 min. After washing with Dulbecco's phosphate-buffered saline containing 1% bovine serum albumin (PBS-BSA), cells were stained by the TUNEL method using the Oncor Apop Tag Direct Fluorescein kit (Oncor), in accordance with the manufacturer's instructions. A negative control was performed by preparing a reaction solution that was devoid of TdT. A Becton Dickinson flow cytometer was used for all analyses; five to ten thousand events (ungated) were collected according to a single color procedure.
DNA samples from HTB11 or HTB14 cells (20-30×10^6 cells) were assayed for strand breakage by resuspending harvested cells (treated with 3-AP or control) in a reaction buffer containing proteinase K, and incubating overnight at 55° C. RNase was added to a final concentration of […] and the samples were incubated at 37° C. for one hour. DNA was extracted three times with phenol/chloroform and twice with chloroform and precipitated in two volumes of chilled 100% ethanol and 0.3M sodium acetate (pH 5.2). […]
There was also no evidence of apoptosis as measured with Annexin V, a method used to detect loss of cell membrane phospholipid asymmetry that has be associated with apoptosis. […] Cells were analyzed by flow cytometry within one hour of completion of staining. The AnnexinV-FITC and PI signals were quantitated independently according to a two-color flow cytometric procedure.

[3] = system: primary rat astroglial cell cultures; experiment: 3-aminopropanal cytotoxicity in primary astroglial cultures; format: cell-based
glial cells (HTB14) = experiment: Apoptosis detection in glial cells (TUNEL flow cytometry, DNA fragmentation); format: cell-based, human; conditions: for development of TUNEL-positivity in 3-aminopropanal-treated glial cells: iNOS inhibitor added, cytofluorography
Description: as §1
DNA samples from HTB11 or HTB14 cells (20-30×10^6 cells) were assayed for strand breakage by resuspending harvested cells (treated with 3-AP or control) in a reaction buffer containing proteinase K, and incubating overnight at 55° C. RNase was added to a final concentration of […] and the samples were incubated at 37° C. for one hour. DNA was extracted three times with phenol/chloroform and twice with chloroform and precipitated in two volumes of chilled 100% ethanol and 0.3M sodium acetate (pH 5.2). The DNA was resuspended in 50 μl of dH2O, fractionated by 1.5% agarose gel electrophoresis, and stained with SYBR Green I nucleic acid stain (Molecular Probes).
There was also no evidence of apoptosis as measured with Annexin V, a method used to detect loss of cell membrane phospholipid asymmetry that has be associated with apoptosis. Annexin V/propidium iodide (PI) staining was performed using a kit in accordance to the manufacturer's instructions (Me Apoptosis Detection Kit, R&D Systems, Minneapolis). Cells were analyzed by flow cytometry within one hour of completion of staining. The AnnexinV-FITC and PI signals were quantitated independently according to a two-color flow cytometric procedure.

[4] = system: glial cell cultures (HTB14); conditions: for inhibition of 3-aminopropanal-induced cell death: HTB14, 3 hours pretreatment, then 3-aminopropanal 5 hours, MTT
[5] = system: glial cell cultures (HTB14); experiment: Toxicity of test compounds in parallel glial cultures incubated without 3-AP; format: cell-based, human; conditions: Table V; HTB14, parallel cultures without 3-AP
Description: In an alternative embodiment of the screening assay of Example 3, various concentrations of the test compound (e.g. 10-1000 μM) are incubated with the indicator cells in presence of a fixed concentration fo 3-AP (e.g, 200 μM).

[6] = system: glial cell cultures (HTB14); experiment: cells; conditions: Homo sapiens, read-out: 50% Effective dose (protection against 3-AP)
[7] = system: cultured hippocampal neurons; experiment: NMDA neurotoxicity in cultured hippocampal neurons (trypan blue); format: cell-based
Description: When aminoguanidine was added to primary neuronal cultures treated with N-methy-D-aspartic acid (NMDA), no attenuation of cytotoxicity was observed (Table III). […] Cultured hippocampal neurons (12-15 days in vitro) were exposed to NMDA (500 μM) for 5 min in MEM (without serum) supplemented with glutamine (100 μM) and glycine (10 μM), rinsed in Earle's Basic Salt Solution, and incubated under standard conditions for 24 hr (37° C.). Neuronal survival was assessed microscopically, by counting a sample of cell somas for uptake vs. exclusion of trypan blue. Aminoguanidine or the non-competitive excitatory amino acid receptor antagonist, MK-801, was added just prior to NMDA and in the final rinse at the concentrations shown. Data are mean±s.e. of nine wells from three replicate experiments.

polyamine oxidase = experiment: Polyamine oxidase activity in ischemic brain homogenates (conversion of added spermine, HPLC); format: biochemical, rat; conditions: for polyamine oxidase activity in ischemic brain homogenate (FIG. 1): 1 mM added 5 minutes prior to spermine; for IC50: homogenates of ischemic brain, inhibitor added 5 minutes prior to spermine, read-out: I.C.50 for polyamine oxidase activity
Description: To measure tissue polyamine oxidase activity, brain homogenates were prepared from the anatomic region perfused by the middle cerebral artery, and total polyamine oxidase activity determined using a method described previously (Seiler and Bolkenius, Neurochem. Res. 10:529-544, 1985; Seiler et al., Med. Biol. 59:334-346, 198 1; and […] et al., J. Neurosci. Res. 28:434-441, 1991), relying on the metabolic conversion of added spermine.

[8] = system: neuronal cell cultures (HTB11); conditions: HTB11 cells, overnight incubation
focal cerebral ischemia = conditions: for volume of brain tissue infarcted vs vehicle-treated controls: i.p. beginning 15 minutes after onset of ischemia, total dose PICVA-25 and PICVA-27 200 mg/kg, PICVA-13 400 mg/kg
iNOS = biological target: T1, iNOS (Mus musculus, UniProt P29477); experiment: iNOS activity in RAW 264.7 cell lysates; format: biochemical; conditions: 1 mM
T1 construct: iNOS activity measured in RAW 264.7 cell lysates; endogenous in cells; host or cells: RAW 264.7 cell lysates
T1 sequence (P29477 whole entry): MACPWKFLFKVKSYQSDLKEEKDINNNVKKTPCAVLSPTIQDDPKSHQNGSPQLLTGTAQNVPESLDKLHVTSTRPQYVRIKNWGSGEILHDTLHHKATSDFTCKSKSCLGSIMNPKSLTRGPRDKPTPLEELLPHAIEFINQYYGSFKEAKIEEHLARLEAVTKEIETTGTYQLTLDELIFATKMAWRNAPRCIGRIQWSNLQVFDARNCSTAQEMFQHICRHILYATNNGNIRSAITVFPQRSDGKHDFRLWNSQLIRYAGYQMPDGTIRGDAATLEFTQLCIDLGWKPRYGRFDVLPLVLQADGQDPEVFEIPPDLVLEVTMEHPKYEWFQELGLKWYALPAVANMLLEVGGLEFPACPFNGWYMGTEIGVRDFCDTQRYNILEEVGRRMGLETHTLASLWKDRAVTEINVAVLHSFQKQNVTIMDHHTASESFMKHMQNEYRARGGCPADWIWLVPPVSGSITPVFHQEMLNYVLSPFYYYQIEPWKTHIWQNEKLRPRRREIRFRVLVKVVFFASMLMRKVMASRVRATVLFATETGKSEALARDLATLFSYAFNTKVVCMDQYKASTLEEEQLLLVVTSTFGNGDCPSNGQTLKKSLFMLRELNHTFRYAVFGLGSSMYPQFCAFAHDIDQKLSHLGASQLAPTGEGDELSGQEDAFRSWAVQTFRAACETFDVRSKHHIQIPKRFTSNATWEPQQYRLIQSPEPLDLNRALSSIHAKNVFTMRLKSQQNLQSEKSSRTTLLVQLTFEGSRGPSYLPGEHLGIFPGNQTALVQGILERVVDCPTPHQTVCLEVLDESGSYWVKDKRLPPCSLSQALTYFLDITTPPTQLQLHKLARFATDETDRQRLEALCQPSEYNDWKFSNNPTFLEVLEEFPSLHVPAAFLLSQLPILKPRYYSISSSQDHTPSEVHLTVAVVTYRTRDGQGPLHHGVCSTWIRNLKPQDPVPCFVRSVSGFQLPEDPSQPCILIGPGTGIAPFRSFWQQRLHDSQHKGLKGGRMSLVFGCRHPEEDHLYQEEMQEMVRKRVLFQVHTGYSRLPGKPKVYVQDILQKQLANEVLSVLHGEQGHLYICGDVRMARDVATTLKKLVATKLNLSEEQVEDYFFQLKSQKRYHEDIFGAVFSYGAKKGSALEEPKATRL

[9] = with NMDA (500 μM) 5 min, MK-801 20 μM or aminoguanidine 1000 μM, 24 hr
[10] = 25 μg in 2 μl intracortical, assessed 48 hr later

NCCC=O [3-aminopropanal]
cell necrosis and apoptosis at the injection zone (eosin, TUNEL staining) (rat brain cortex): both cellular necrosis and programmed cell death
brain damage after intracortical microinjection (TTC staining) (rat brain cortex; rat, in vivo): caused significant cytotoxicity
intracerebral TNF synthesis [1]: directly stimulated
induction of apoptosis in neuronal cells [2]: did not induce apoptosis
cell death by forward scatter/side scatter analysis ([2]; HTB11 neurons after 3-aminopropanal treatment): 55.7%
cytotoxic LD50 [3]: 80 ± 9 µM
glial cells stained TUNEL-positive (glial cells (HTB14); 13 hours of exposure to 275 μM): 76%
apoptosis-specific DNA fragmentation (glial cells (HTB14); HTB-14 glial cells exposed to 3-aminopropanal): apoptosis-specific DNA fragmentation pattern was observed

NC(=O)c1cc[n+](CC(=O)c2ccccc2)cc1C(N)=O [AP21, N-(2-phenyl-2-oxoethyl)-3,4-dicarboxyamide-pyridinium bromide]
EC50 ([4]; read-out: 50% Effective dose (protection against 3-AP), Table V, HTB14, fixed 3-AP (e.g. 200 μM)): 100 µM

O=C(O)c1cc(Br)c[n+](CC(=O)c2ccccc2)c1.[Br-] [AP22, N-(2-phenyl-2-oxoethyl)-3-bromo-5-carboxypyridinium bromide]
50% Toxic dose [5]: 1 mM
EC50 [6]: 199 µM

CNC(=N)NCCC[C@H](N)C(=O)O [L-NMMA, L-N^G-monomethylarginine]
development of TUNEL-positivity in 3-aminopropanal-treated glial cells (glial cells (HTB14)): failed to attenuate

C[C@]12N[C@H](Cc3ccccc31)c1ccccc12 [MK-801]
Neurotoxicity (% dead) [7, 9]: 8 ± 3 % dead

CN[C@H](CC(=O)O)C(=O)O [NMDA, N-methy-D-aspartic acid]
Neurotoxicity (% dead) ([7]; NMDA (500 μM) alone, 5 min exposure, 24 hr): 88 ± 4 % dead

N=C(N)NN [aminoguanidine]
Neurotoxicity (% dead) [7, 9]: 79 ± 4 % dead
Neurotoxicity (% dead) ([7]; without NMDA, aminoguanidine 1000 μM alone): 7 ± 2 % dead
polyamine oxidase activity in ischemic brain homogenate (FIG. 1) (polyamine oxidase): inhibited
IC50 (polyamine oxidase): 400 µM
protection against intracortical spermine-mediated cell death, intracortical administration (rat brain cortex; given intracortically simultaneously with spermine): conferred significant protection
protection against spermine-mediated intracortical damage, systemic administration (rat brain cortex): conferred significant protection
effect on direct cytotoxicity of intracortical 3-aminopropanal (rat brain cortex; intracortical 3-aminopropanal): failed to significantly attenuate
effect on spermine-induced cell necrosis and apoptosis (histology) (rat brain cortex; intracortical spermine): significantly inhibited
development of TUNEL-positivity in 3-aminopropanal-treated glial cells (glial cells (HTB14)): failed to attenuate
LD50 for 3-aminopropanal in the presence of the PAO inhibitor vs without [8]: similar

CC[C@@]1(O)C(=O)OCc2c1cc1n(c2=O)Cc2cc3ccccc3nc2-1 [camptothecin]
induction of apoptosis in neuronal cells [2]: Apoptosis was induced

CCN(CC)CCCC(C)Nc1ccnc2cc(Cl)ccc12 (stereo not shown) [chloroquine]
polyamine oxidase activity in ischemic brain homogenate (FIG. 1) (polyamine oxidase): inhibited
IC50 (polyamine oxidase): 40 µM
protection against spermine-mediated intracortical damage, systemic administration (rat brain cortex): conferred significant protection
systemic homeostatic responses to cerebral ischemia (blood pressure, heart rate, body temperature, arterial blood gases) (focal cerebral ischemia; rat, in vivo): did not significantly alter
iNOS activity (iNOS): 11800±900 DPM/mg protein

O=C(C[n+]1ccsc1)c1ccccc1.[Br-] [p25, 3-(2-phenyl-2-oxoethyl)-thiazolium bromide]
volume of brain tissue infarcted vs vehicle-treated controls (focal cerebral ischemia): significantly reduced
mortality associated with treatment in the in vivo screening tests (focal cerebral ischemia; rats with focal cerebral ischemia): 38%

O=C(C[n+]1ccccc1)c1ccccc1.[Br-] [p27a, N-(2-phenyl-2-oxoethyl)-pyridinium bromide]
50% Toxic dose [5]: 5 mM
mortality associated with treatment in the in vivo screening tests (focal cerebral ischemia; Lewis, rat, in vivo): 25%
volume of brain tissue infarcted vs vehicle-treated controls (focal cerebral ischemia): significantly reduced
EC50 [6]: 425 µM

NCCCCN [putrescine]
brain damage after intracortical microinjection (TTC staining) (rat brain cortex; [10]): cell death was not observed
cell necrosis and apoptosis at the injection zone (eosin, TUNEL staining) (rat brain cortex): not observed

NCCCCNCCCN [spermidine]
brain damage after intracortical microinjection (TTC staining) (rat brain cortex; [10]): brain tissue damage

NCCCNCCCCNCCCN [spermine]
cell necrosis and apoptosis at the injection zone (eosin, TUNEL staining) (rat brain cortex): caused cell necrosis and apoptosis
brain damage after intracortical microinjection (TTC staining) (rat brain cortex; rat, in vivo): brain tissue damage

Ac-DEVD-CHO
inhibition of 3-aminopropanal-induced cell death [4]: not

Ac-YVAD-CMK
inhibition of 3-aminopropanal-induced cell death [4]: conferred dose-dependent inhibition
